Experimental data as given in patent US7491534B2, “Methods for altering cell fate to generate T-cells specific for an antigen of interest” (priority 2000, dated 2009).
Numbered stars: 1 amine (or outer) side, 2 acyl side, 3 side chain; on linkers, the order of the positions; unused ones are H or OH. Bridge positions count the residues as written; N and C are the ends. Square brackets hold non-standard residues; d marks the D form. Peptide text beside a SMILES is read from it. I, II: the chains in the order shown. Actinocin(9to1) = Cc1c2oc3c(C)ccc(C(=O)[*:1])c3nc-2c(C(=O)[*:2])c(N)c1=O; NMeV = CN[C@H](C(=O)O)C(C)C; Sar = CNCC(=O)O

What was measured:
[1] = system: NFAT, c-Jun/AP 1, NFκB, and MAP kinase (Erk1 and Erk2); assay: Nuclear uptake of transcription factors by resting T-cell nuclei in cell-free extract (immunoblot); assay type: biochemical, human; settings: in stimulated extract; ATP or GTP substituted, or nuclear pores blocked
Method: A stimulated T-cell extract was prepared by lysing these T-cells, centrifuging them at 15,000×g, isolating the supernatant, and adding an ATP-generating system to the supernatant. In particular, cells were disrupted with a tip sonicator until over 90% of the cells and nuclei were lysed. The lysate was cleared at 15,000×g for 15 minutes at 4° C. The supernatant was used fresh or aliquoted, frozen in liquid nitrogen, and stored at −80° C. […] Extract from unstimulated T-cells (USE) were prepared from mock (H2O)-stimulated T-cells. A reprogramming reaction consisted of 20 μl or multiples thereof of stimulated extract or unstimulated extract containing 10^5 nuclei and an ATP generating system (1 mM ATP, 10 mM creatine phosphate, 25 μg/ml creatine kinase, and 100 μM GTP).
To generate donor nuclei, resting peripheral blood T-cells were washed and resuspended in 20 volumes of ice-cold hypotonic nuclear buffer (10 mM Hepes, pH 7.5, 2 mM MgCl2, 25 mM KCl, 1 mM DTT, and protease inhibitors). Nuclei were isolated by careful Dounce-homogenization, sedimented at 400×g and washed in nuclear buffer (hypotonic nuclear buffer/250 mM sucrose). HUVEC, HeLa, and NT2 nuclei were isolated similarly. Nuclear integrity prior to, and after, incubation in the extract was monitored by phase contrast microscopy and by nuclear membrane labeling with 10 μg/ml of the lipophilic dye, DiOC6 (FIG. 8A). […]
The ability of other transcription factors from the extract to migrate into the nuclei of T-cells, B-cells, fibroblasts, and HeLa cells was also determined. […] As expected for a whole cell extract, NFAT, AP-1, or NFκB, Oct-1 and Erk (1 and 2) were detected on Western blots of input stimulated extract prior to incubation of the nuclei (FIG. 8B). […] The ubiquitous transcription factor Oct-1 was detected in similar amounts in input nuclei and nuclei exposed to stimulated extract or unstimulated extract (FIG. 8B, Oct-1).

IL-2 gene [2] = assay: RT-PCR of IL-2 transcription in 293T fibroblast nuclei; assay type: biochemical, human; settings: 293T nuclei; mAb414 or 50 nM actinomycin D
Method: Another and more stringent indicator of nuclear reprogramming was induction of IL-2 transcription in 293T fibroblast nuclei exposed to stimulated T-cell extract (FIG. 12D). Total RNA was isolated using the Qiagen RNeasy kit, and 15 ng RNA was used as the template for RT-PCR using the Promega Access RT-PCR System. A 467-bp product was amplified using the IL-2-specific primers 5′-[…]-3′ (SEQ ID NO: 5) and 5′-[…]-3′ (SEQ ID NO: 6) by 30 cycles of denaturation at 94° C. for 30 seconds, annealing at 60° C. for one minute, and extension at 72° C. for one minute. […] As expected from the above results, the IL-2 transcript was absent from input nuclei, input stimulated T-cell extract, and nuclei exposed to stimulated T-cell extract containing either 100 pg/ml RNAse A, mAb414, or 50 nM of the RNA polymerase II (Pol II) inhibitor, actinomycin D (FIG. 12D). Similar results were obtained with neuronal precursor NT2 nuclei and resting T-cell nuclei (FIG. 12D).

IL-2 gene [3] = assay: RT-PCR of IL-2 mRNA in HUVEC, NT2 and HeLa nuclei incubated in extract; assay type: biochemical, human; settings: 50 nM actinomycin D; mAb414
Method: As a more stringent indicator of nuclear reprogramming, activation of the IL-2 gene was monitored in nuclei purified from primary human umbilical vein endothelial cells (HUVEC), NT2 neuronal precursors, and HeLa cells after a two hour incubation in the stimulated extract. […] IL-2 activation was dependent on RNA Pol II activity and nuclear import, based on its elimination by 50 nM actinomycin D and mAb414, respectively (FIG. 10C).

IL-2 gene [4] = assay: RT-PCR of IL-2 mRNA in resting T-cell nuclei incubated in extract; assay type: biochemical, human; settings: mAb414 antibody or 0.5 mg/ml wheat germ agglutinin
Method: As controls, nuclei were incubated in stimulated extract containing either 100 μg/ml RNAse A, 100 μg/ml DNAse I, mAb414 antibodies, or the lectin WGA. After 30 minutes at 30° C., nuclei were lysed in the extracts by sonication and 3 μl extract aliquots were removed for RT-PCR analysis using IL-2-specific primers. In particular, total RNA was isolated using the Qiagen RNeasy kit, and 15 ng RNA was used as the template for RT-PCR using the Promega Access RT-PCR System. A 467-bp IL-2 cDNA was amplified using the IL-2-specific primers 5′-[…]-3′ (SEQ ID NO: 3) and 5′-[…]-3′ (SEQ ID NO:4). PCR conditions were 30 cycles of denaturation at 94° C. for one minute, annealing at 60° C. for two minutes, and extension at 72° C. for three minutes. Input stimulated extract and a control stimulated extract containing 1.2 μg total RNA isolated from IL-2-producing T-cells were also analyzed (FIGS. 5A and 10A). […] The PCR product of the expected size (467 base pairs) was absent from input nuclei and input stimulated extract (as expected from FIG. 7), nuclei exposed to unstimulated extract (Nuclei-USE), and nuclei exposed to stimulated extract followed by treatment with 100 μg/ml RNAse A, but not 100 μg/ml DNAse I, prior to RT-PCR. Thus, detection of IL-2 mRNA was the result of IL-2 transcription and not of RNA contamination in input nuclei or in the extract. […]

293T fibroblasts = assay: Permeabilization of 293T fibroblasts judged by propidium iodide uptake; assay type: cell-based, human; settings: 200 ng/ml, 50 minutes at 37° C.
Method: For these studies, 293T fibroblasts were grown on 16-mm poly-L-lysine-coated coverslips in RPMI1640 to 100,000 cells/coverslip in 12-well plates. Cells were permeabilized in 200 ng/ml streptolysin O in Ca^2+-free Hanks Balanced Salt Solution (Gibco-BRL) for 50 minutes at 37° C. in regular atmosphere. Over 80% of 293T cells were permeabilized under these conditions, as judged by propidium iodide uptake. Streptolysin O was aspirated; coverslips overlaid with 80 μl of either 293T, Jurkat-Tag, or NT2 extract; and incubated for one hour at 37° C. in CO2 atmosphere. Each extract contained the ATP generating system and 1 mM each of ATP, CTP, GTP and UTP. Extracts from Jurkat-TAg cells were prepared as described above after co-stimulation for 1-2 hours with 40 ng/ml anti-CD3 antibodies (clone SpvT3d obtained from A. M. Rasmussen, Norwegian Radium Hospital, Montebello, Norway) and 0.1 μM PMA. The neuronal precursor NT2 extract was prepared from confluent NT2 cells (Stratagene) by sonication and sedimentation as described above. To reseal plasma membranes, RPMI1640 containing 2 mM CaCl2 (added from a 1 M stock in H2O) was added to the wells, and the cells were incubated for two hours at 37° C. This procedure resealed ˜100% of the permeabilized cells. Ca^2+-containing RPMI was replaced by RPMI, and the cells were expanded for several weeks.

Nc1nc2c(ncn2[C@@H]2O[C@H](COP(=O)(O)OP(=O)(O)OP(O)(O)=S)[C@@H](O)[C@H]2O)c(=O)[nH]1 [GTPγS]
nuclear uptake (import) of transcription factors in resting T-cell nuclei [1]: inhibited

Cc1c2oc3c(C)ccc(C(=O)N[C@@H]4C(=O)N[C@H](C(C)C)C(=O)N5CCC[C@H]5C(=O)N(C)CC(=O)N(C)[C@@H](C(C)C)C(=O)O[C@@H]4C)c3nc-2c(C(=O)N[C@@H]2C(=O)N[C@H](C(C)C)C(=O)N3CCC[C@H]3C(=O)N(C)CC(=O)N(C)[C@@H](C(C)C)C(=O)O[C@@H]2C)c(N)c1=O [actinomycin D] (I: T[dV]P[Sar][NMeV] / II: T[dV]P[Sar][NMeV]; ester I:1-I:C, II:1-II:C; linker I:N-II:N via Actinocin(9to1))
IL-2 transcript in stimulated T-cell extract with inhibitor (IL-2 gene [2]): absent | IL-2 activation in stimulated extract with inhibitor (IL-2 gene [3]): elimination

wheat germ agglutinin
IL-2 transcription in stimulated extract with nuclear pore function blocked (IL-2 gene [4]): abolished

Nc1ncnc2c1ncn2[C@@H]1O[C@H](COP(=O)(O)OP(=O)(O)NP(=O)(O)O)[C@@H](O)[C@H]1O [AMP-PNP]
nuclear uptake (import) of transcription factors in resting T-cell nuclei [1]: inhibited

Nc1ncnc2c1ncn2[C@@H]1O[C@H](COP(=O)(O)OP(=O)(O)OP(O)(O)=S)[C@@H](O)[C@H]1O [ATPγS]
nuclear uptake (import) of transcription factors in resting T-cell nuclei [1]: inhibited

streptolysin O: bacterial toxin used to reversibly permeabilize cells
293T cells permeabilized (293T fibroblasts): Over 80%
